Results taken from US12208088B2 (Genentech, Inc., priority 2018, dated 2025).

Biological target: HPK1 (Homo sapiens (Human), UniProt Q92918)
Test: HPK1 Lantha binding assay ("Lanth")
Conditions: binding assays; Morrison Ki fit
Procedure: Example B2: HPK1 Lantha Binding Assay (“Lanth”)
Procedure: I. Compound Dilution:
The compounds to be tested were diluted by preparing 12.5 uL/well of 5 mM compound (100×) in columns 2 and 13 and 10 ul/well of DMSO in columns 3-12, 14-23, and wells A1-H1 and I24-P24 of the compound plate using a Bravo liquid handling platform. For the reference compound, the top concentration was 1 mM. To the plate was added 10 ul 2 mM staurosporine in wells J1-P1 and A24-H24. A 11 point 5-fold compound serial dilution was performed using the Bravo liquid handling platform. From the plate were transferred 2.5 ul of the solutions from column 2 and column 13 to the 10 ul of DMSO in columns 3 and 14 & so on. The compound plate was centrifuged at 2500 rpm for 1 min. From the compound plate was transferred 80 nl of the compounds into an assay plate using the Echo liquid handler system. One compound plate makes two assay plates. Each assay plate is sealed and stored in an N2 cabinet.
The following assay concentrations and times were used: 2 nM HPK1, 2 nM Eu-Anti-GST Ab, and 15 nM Tracer222, with 60 min incubation time.
III. HPK Lantha Binding Assay:
For the binding assay, 4 ul 2×HPK1 and Eu-anti-GST antibody were added to each well of the assay plate using a Multidrop reagent dispenser. The solutions were incubated in a 23 C incubator for 1 h. To each well of the assay plate was added 4 ul 2× Tracer-222 using a Multidrop reagent dispenser. The solutions were again incubated in a 23 C incubator for 1 h. The results of the assay were read using an Envision plate reader with the following parameters: TR_FRET, 340 ex/615 and 665em; 100 usec Delay; and 200 usec integration.
Compound Ki was analyzed using Morrison ki fit model in XL-fit • a. fit=(1−((((E+x)+(Ki*(1+(S/Kd))))−(((((E+x)+(Ki*(1+(S/Kd))))^2)−((4*E)*x))^0.5))/(2*E))) • res=(y−fit) • b. Parameters: • E=enzyme concentration • S=Tracer222 concentration, Kd=Tracer222 Kd • All measurements reported using the same units (uM)
Exemplary compounds were tested in the binding assays.

Chain of HPK1 (Q92918 1-346 limits assumed): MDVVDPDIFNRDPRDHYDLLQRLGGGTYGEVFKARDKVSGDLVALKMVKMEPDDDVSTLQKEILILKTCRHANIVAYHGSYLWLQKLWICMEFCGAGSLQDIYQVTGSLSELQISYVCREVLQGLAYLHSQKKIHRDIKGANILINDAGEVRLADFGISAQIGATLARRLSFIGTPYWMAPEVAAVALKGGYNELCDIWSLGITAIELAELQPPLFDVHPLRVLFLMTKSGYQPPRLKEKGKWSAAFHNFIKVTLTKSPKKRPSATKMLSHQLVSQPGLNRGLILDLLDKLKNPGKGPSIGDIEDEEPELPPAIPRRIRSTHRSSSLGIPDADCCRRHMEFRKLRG

Structure (SMILES)	Ki
CN(C)C(=O)c1c(N)ccc(-c2cnc3c(c2Cl)[C@]2(CC[C@H](Oc4ccccn4)C2)CN3)c1F (relative stereo) [Compound 173a, 6-Amino-3-((1R,3S)-4′-chloro-3-(pyridin-2-yloxy)-1′,2′-dihydrospiro[cyclopentane-1,3′-pyrrolo[2,3-b]pyridin]-5′-yl)-2-fluoro-N,N-dimethylbenzamide]	6.75 nM
Cc1cn([C@H]2CC[C@@]3(CNc4ncc(-c5ccc(N)c(C(=O)N(C)C)c5F)c(Cl)c43)C2)nc1N (relative stereo) [Compound 177a, 6-Amino-3-((1R,3S)-3-(3-amino-4-methyl-1H-pyrazol-1-yl)-4′-chloro-1′,2′-dihydrospiro[cyclopentane-1,3′-pyrrolo[2,3-b]pyridin]-5′-yl)-2-fluoro-N,N-dimethylbenzamide]	14.7 nM
Cc1cnn([C@H]2CC[C@@]3(CNc4ncc(-c5ccc(N)c(C(=O)N(C)C)c5F)c(Cl)c43)C2)c1N (relative stereo) [Compound 178a, 6-Amino-3-((1R,3S)-3-(5-amino-4-methyl-1H-pyrazol-1-yl)-4′-chloro-1′,2′-dihydrospiro[cyclopentane-1,3′-pyrrolo[2,3-b]pyridin]-5′-yl)-2-fluoro-N,N-dimethylbenzamide]	15.9 nM
CN(C)C(=O)c1c(N)ccc(-c2cnc3c(c2Cl)[C@]2(CC[C@H](n4cc(C(N)=O)cn4)C2)CN3)c1F (relative stereo) [Compound 180a, 1-((1R,3S)-5′-(4-Amino-3-(dimethylcarbamoyl)-2-fluorophenyl)-4′-chloro-1′,2′-dihydrospiro[cyclopentane-1,3′-pyrrolo[2,3-b]pyridin]-3-yl)-1H-pyrazole-4-carboxamide]	46.1 nM
CN(C)C(=O)c1c(N)ccc(-c2cnc3c(c2Cl)[C@]2(CC[C@H](n4ccccc4=O)C2)CN3)c1F (relative stereo) [Compound 196a, 6-Amino-3-((1R,3S)-4′-chloro-3-(2-oxopyridin-1(2B)-yl)-1′,2′-dihydrospiro[cyclopentane-1,3′-pyrrolo[2,3-b]pyridin]-5′-yl)-2-fluoro-N,N-dimethylbenzamide]	97.6 nM
CN(C)C(=O)c1c(N)ccc(-c2cnc3c(c2Cl)[C@@]2(CN3)C[C@@H]2c2ccncc2)c1F (relative stereo) [Compound 198a, 6-Amino-3-((1R,2R)-4′-chloro-2-(pyridin-4-yl)-1′,2′-dihydrospiro[cyclopropane-1,3′-pyrrolo[2,3-b]pyridin]-5′-yl)-2-fluoro-N,N-dimethylbenzamide]	15.2 nM
CN(C)C(=O)c1c(N)ccc(-c2cnc3c(c2Cl)[C@@]2(CN3)C[C@@H]2c2ccccc2)c1F (relative stereo) [Compound 201a, 6-Amino-3-((1R,2R)-4′-chloro-2-phenyl-1′,2′-dihydrospiro[cyclopropane-1,3′-pyrrolo[2,3-b]pyridin]-5′-yl)-2-fluoro-N,N-dimethylbenzamide]	3.58 nM
CN(C)C(=O)c1c(N)ccc(-c2cnc3c(c2Cl)[C@]2(CC[C@H](CO)C2)CN3)c1F (relative stereo) [Compound 259a, 6-Amino-3-((1R,3S)-4′-chloro-3-(hydroxymethyl)-1′,2′-dihydrospiro[cyclopentane-1,3′-pyrrolo[2,3-b]pyridin]-5′-yl)-2-fluoro-N,N-dimethylbenzamide]	6.1 nM
CN(CCN1CCOCC1)C(=O)c1c(N)ccc(-c2cnc3c(c2Cl)[C@]2(CC[C@](C)(C#N)C2)CN3)c1F (relative stereo) [Compound 272a, 6-Amino-3-((1R,3S)-4′-chloro-3-cyano-3-methyl-1′,2′-dihydrospiro[cyclopentane-1,3′-pyrrolo[2,3-b]pyridin]-5′-yl)-2-fluoro-N-methyl-N-(2-morpholinoethyl)benzamide]	30.8 nM
CN(C)CCCN(C)C(=O)c1c(N)ccc(-c2cnc3c(c2Cl)[C@]2(CC[C@](C)(C#N)C2)CN3)c1F (relative stereo) [Compound 275a, 6-Amino-3-((1R,3S)-4′-chloro-3-cyano-3-methyl-1′,2′-dihydrospiro[cyclopentane-1,3′-pyrrolo[2,3-b]pyridin]-5′-yl)-N-(3-(dimethylamino)propyl)-2-fluoro-N-methylbenzamide]	41 nM
CN1CCN(c2cccc3c(-c4cnc5c(c4Cl)[C@]4(CC[C@H](C(N)=O)C4)CN5)c[nH]c23)C(=O)C1 (relative stereo) [Compound 304a, (1R,3S)-4′-Chloro-5′-(7-(4-methyl-2-oxopiperazin-1-yl)-1H-indol-3-yl)-1′,2′-dihydrospiro[cyclopentane-1,3′-pyrrolo[2,3-b]pyridine]-3-carboxamide]	43.9 nM
NC(=O)[C@H]1CC[C@@]2(CNc3ncc(-c4c[nH]c5c(N6CCNCC6=O)cccc45)c(Cl)c32)C1 (relative stereo) [Compound 305a, (1RS,3SR)-4′-Chloro-5′-(7-(2-oxopiperazin-1-yl)-1H-indol-3-yl)-1′,2′-dihydrospiro[cyclopentane-1,3′-pyrrolo[2,3-b]pyrdine]-3-carboxamide]	38.6 nM
C[C@@H]1C[C@@]12CNc1ncc(-c3c[nH]c4c(N5CCNCC5=O)cccc34)cc12 (relative stereo) [Compound 306a, 1-(3-((1R,2R)-2-methyl-1′,2′-dihydrospiro[cyclopropane-1,3′-pyrrolo[2,3-b]pyridin]-5′-yl)-1H-indol-7-yl)piperazin-2-one]	43.2 nM
C[C@]1(C#N)CC[C@@]2(CNc3ncc(-c4c[nH]c5ccc(C#N)cc45)c(Cl)c32)C1 (relative stereo) [Compound 330a, (1R,3S)-4′-Chloro-5′-(5-cyano-1H-indol-3-yl)-3-methyl-1′,2′-dihydrospiro[cyclopentane-1,3′-pyrrolo[2,3-b]pyridine]-3-carbonitrile]	73.9 nM
C[C@]1(C(N)=O)CC[C@@]2(CNc3ncc(-c4c[nH]c5ccc(C#N)cc45)c(Cl)c32)C1 (relative stereo) [Compound 337a, (1R,3S)-4′-Chloro-5′-(5-cyano-1H-indol-3-yl)-3-methyl-1′,2′-dihydrospiro[cyclopentane-1,3′-pyrrolo[2,3-b]pyridine]-3-carboxamide]	28.4 nM
CN(C)C(=O)c1c(N)ccc(-c2cnc3c(c2Cl)[C@@]2(CN3)C[C@@H]2CO)c1F (single isomer, unassigned) [Compound 39c]	11.6 nM
CN(C)C(=O)c1c(N)ccc(-c2cnc3c(c2Cl)[C@]2(CN3)C[C@H]2CO)c1F (single isomer, unassigned) [Compound 39d]	18.7 nM
Nc1cc(-c2cnc3c(c2Cl)[C@]2(CC[C@H](O)C2)CN3)cc(-c2ncccc2CO)c1 (single isomer, unassigned) [Compound 61a]	39.1 nM
Nc1cc(-c2cnc3c(c2Cl)[C@@]2(CC[C@@H](O)C2)CN3)cc(-c2ncccc2CO)c1 (single isomer, unassigned) [Compound 61b]	12.1 nM
Cn1cccc(-c2cccc(-c3cnc4c(c3Cl)C3(CC[C@@H](O)C3)CN4)c2)c1=O (single isomer, unassigned) [Compound 68a]	17.9 nM
Cn1cccc(-c2cccc(-c3cnc4c(c3Cl)C3(CC[C@@H](O)C3)CN4)c2)c1=O (single isomer, unassigned) [Compound 68b]	7.7 nM
CN(C)C(=O)c1c(N)ccc(-c2cnc3c(c2Cl)[C@]2(CC[C@@H](n4ccnn4)C2)CN3)c1F (single isomer, unassigned) [Compound 90c]	80.4 nM
CN(C)C(=O)c1c(N)ccc(-c2cnc3c(c2Cl)[C@]2(CC[C@H](c4ncn[nH]4)C2)CN3)c1F (single isomer, unassigned) [Compound 99a]	14.5 nM
CN(C)C(=O)c1c(N)ccc(-c2cnc3c(c2Cl)[C@]2(CC[C@H](C(N)=O)C2)CN3)c1F (single isomer, unassigned) [Compound 100a]	63.5 nM
CN(C)C(=O)c1c(N)ccc(-c2cnc3c(c2Cl)[C@@]2(CC[C@@H](C(N)=O)C2)CN3)c1F (single isomer, unassigned) [Compound 100b]	1.74 nM
CN(C)C(=O)c1c(N)ccc(-c2cnc3c(c2Cl)[C@]2(CC[C@H](C(=O)O)C2)CN3)c1F (single isomer, unassigned) [Compound 105a]	9.85 nM
CN(C)C(=O)c1c(N)ccc(-c2cnc3c(c2Cl)[C@]2(CC[C@H](C(=O)N(C)C)C2)CN3)c1F (single isomer, unassigned) [Compound 107a]	50.1 nM
CN(C)C(=O)c1c(N)ccc(-c2cnc3c(c2Cl)[C@]2(CC[C@](O)(Cn4cncn4)C2)CN3)c1F (single isomer, unassigned) [Compound 116c]	140 nM
CN(C)C(=O)c1c(N)ccc(-c2cnc3c(c2Cl)[C@]2(CC[C@H](n4ncnc4N)C2)CN3)c1F (single isomer, unassigned) [Compound 118a]	8.49 nM
CN(C)C(=O)c1c(N)ccc(-c2cnc3c(c2Cl)[C@@]2(CCC(=O)NC2)CN3)c1F (single isomer, unassigned) [Compound 123a]	37.6 nM
